Consider 19 compounds from US9409870B2, “Compounds” (CHIESI FARMACEUTICI S.p.A., priority 2014, dated 2016).

In this assay the target is T1, human neutrophil elastase (HNE) (Homo sapiens, UniProt P08246).
T1 construct: purchased Sigma E8140
T1 sequence (P08246 30-247 limits assumed): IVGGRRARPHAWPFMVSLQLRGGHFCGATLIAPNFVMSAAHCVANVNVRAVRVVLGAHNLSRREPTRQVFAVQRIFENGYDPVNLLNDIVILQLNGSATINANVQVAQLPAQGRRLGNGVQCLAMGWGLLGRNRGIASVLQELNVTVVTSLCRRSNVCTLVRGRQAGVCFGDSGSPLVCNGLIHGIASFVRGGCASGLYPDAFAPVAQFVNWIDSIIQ
The experiment in a line: HNE enzyme activity assay (fluorogenic peptide substrate MeOSuc-Ala-Ala-Pro-Val-AMC). Format: biochemical. The note with it: human leukocyte elastase 0.00072 U/mL, substrate 100 μM, 25° C., 30 minutes, pH 7.5; at least two separate experiments; read-out: FINE inhibition (HNE enzyme inhibition, IC50 values). The procedure: Compounds of this invention were tested for potency in a human neutrophil elastase (HNE) enzyme activity assay.
Assays were performed in 96-well plates in a total assay volume of 100 μL. The final concentration of elastase enzyme (human leukocyte elastase, Sigma E8140) was 0.00072 U/mL. The peptide substrate (MeOSuc-Ala-Ala-Pro-Val-AMC, Calbiochem #324740) was used at a final concentration of 100 μM. The final concentration of DMSO was 1% in the assay buffer (0.05M Tris.HCl, 0.1M NaCl, 0.1M CaCl2, 0.0005% brij-35, pH 7.5). The enzymatic reaction was started by addition of the enzyme and incubated at 25° C. for 30 minutes. After incubation, the reaction was stopped by addition of soybean trypsin inhibitor (Sigma T9003) at a final concentration of 50 μg/well. Fluorescence was measured using a Molecular Devices fluorescence plate reader using 380 nm excitation and 460 nm emission wavelengths.
A dose response to each compound was performed and the effect of compound in each experiment was expressed as a percentage inhibition of the control enzyme fluorescence. Dose response curves were plotted and compound potency (IC50) was determined. Compounds were tested in at least two separate experiments.

One may read the IC50 as the point on the concentration scale where inhibition reaches its midpoint. For the compound `Cc1c(-c2ccnn2-c2ccc(C#N)cc2)n(C(=O)N[C@@H]2COC[C@H]2O)c(=O)n1-c1cccc(C(F)(F)F)c1` (racemic) [Example 48, Mixture of 5-[2-(4-Cyano-phenyl)-2H-pyrazol-3-yl]-4-methyl-2-oxo-3-(3-trifluoromethyl-phenyl)-2,3-dihydro-imidazole-1-carboxylic acid ((3R,4S)-4-hydroxy-tetrahydro-furan-3-yl)-amide and 5-[2-(4-Cyano-phenyl)-2H-pyrazol-3-yl]-4-methyl-2-oxo-3-(3-trifluoromethyl-phenyl)-2,3-dihydro-imidazole-1-carboxylic acid ((3S,4R)-4-hydroxy-tetrahydro-furan-3-yl)-amide], the half-inhibitory concentration (IC50) is under 1 nM.
As for `Cc1c(-c2ccnn2-c2ccc(C#N)cc2)[nH]c(=O)n1-c1cccc(C(F)(F)F)c1` [Example 1, 4-(5-{5-Methyl-2-oxo-1-[3-(trifluoromethyl)phenyl]-2,3-dihydro-1H-imidazol-4-yl}-1H-pyrazol-1-yl)benzonitrile], the figure is 10 to 50 nM; as for `Cc1c(-c2ccnn2-c2ccc(C#N)cc2)n(CCCS(C)(=O)=O)c(=O)n1-c1cccc(C(F)(F)F)c1` [Example 2, 4-(5-{5-Methyl-3-[3-(methylsulfonyl)propyl]-2-oxo-1-[3-(trifluoromethyl)phenyl]-2,3-dihydro-1H-imidazol-4-yl}-1H-pyrazol-1-yl)benzonitrile], 1 to 10 nM; as for `Cc1c(-c2ccnn2-c2ccc(C#N)cc2)n(C)c(=O)n1-c1cccc(C(F)(F)F)c1` [Example 3, 4-(5-{3,5-Dimethyl-2-oxo-1-[3-(trifluoromethyl)phenyl]-2,3-dihydro-1H-imidazol-4-yl}-1H-pyrazol-1-yl)benzonitrile], 1 to 10 nM.
Regarding `CCOC(=O)n1c(-c2ccnn2-c2ccc(C#N)cc2)c(C)n(-c2cccc(C(F)(F)F)c2)c1=O` [Example 4, Ethyl-5-[1-(4-cyanophenyl)-1H-pyrazol-5-yl]-4-methyl-2-oxo-3-[3-(trifluoromethyl)phenyl]-2,3-dihydro-1H-imidazole-1-carboxylate], the IC50 was under 1 nM.
For `CC(=O)n1c(-c2ccnn2-c2ccc(C#N)cc2)c(C)n(-c2cccc(C(F)(F)F)c2)c1=O` [Example 5, 4-(5-{3-Acetyl-5-methyl-2-oxo-1-[3-(trifluoromethyl)phenyl]-2,3-dihydro-1H-imidazol-4-yl}-1H-pyrazol-1-yl)benzonitrile], the concentration for half-maximal inhibition (IC50) fell in the range of 1 to 10 nM.
As to `CCNC(=O)n1c(-c2ccnn2-c2ccc(C#N)cc2)c(C)n(-c2cccc(C(F)(F)F)c2)c1=O` [Example 6, 5-[1-(4-Cyanophenyl)-1H-pyrazol-5-yl]-N-ethyl-4-methyl-2-oxo-3-[3-(trifluoromethyl)phenyl]-2,3-dihydro-1H-imidazole-1-carboxamide], the IC50 was under 1 nM.
As for `Cc1c(-c2ccnn2-c2ccc(C#N)cc2)n(C(=O)NCCO)c(=O)n1-c1cccc(C(F)(F)F)c1` [Example 7, 5-[1-(4-Cyanophenyl)-1H-pyrazol-5-yl]-N-(2-hydroxyethyl)-4-methyl-2-oxo-3-[3-(trifluoromethyl)phenyl]-2,3-dihydro-1H-imidazole-1-carboxamide], the figure is 1 to 10 nM.
Consider `Cc1c(-c2ccnn2-c2ccc(C#N)cc2)n(C(=O)NCCCO)c(=O)n1-c1cccc(C(F)(F)F)c1` [Example 8, 5-[1-(4-Cyanophenyl)-1H-pyrazol-5-yl]-N-(3-hydroxypropyl)-4-methyl-2-oxo-3-[3-(trifluoromethyl)phenyl]-2,3-dihydro-1H-imidazole-1-carboxamide], for which the 50% inhibitory concentration (IC50) is under 1 nM.
For `Cc1c(-c2ccnn2-c2ccc(C#N)cc2)n(C(=O)NCCCN(C)C)c(=O)n1-c1cccc(C(F)(F)F)c1` [Example 9, 5-[1-(4-Cyanophenyl)-1H-pyrazol-5-yl]-N-[3-(dimethylamino)propyl]-4-methyl-2-oxo-3-[3-(trifluoromethyl)phenyl]-2,3-dihydro-1H-imidazole-1-carboxamide], the IC50 lay within 1 to 10 nM.
With `CCCC(=O)n1c(-c2ccnn2-c2ccc(C#N)cc2)c(C)n(-c2cccc(C(F)(F)F)c2)c1=O` [Example 10, 4-(5-{3-Butanoyl-5-methyl-2-oxo-1-[3-(trifluoromethyl)phenyl]-2,3-dihydro-1H-imidazol-4-yl}-1H-pyrazol-1-yl)benzonitrile], the IC50 is under 1 nM.
`COCCNC(=O)n1c(-c2ccnn2-c2ccc(C#N)cc2)c(C)n(-c2cccc(C(F)(F)F)c2)c1=O` [Example 11, 5-[1-(4-Cyanophenyl)-1H-pyrazol-5-yl]-N-(2-methoxyethyl)-4-methyl-2-oxo-3-[3-(trifluoromethyl)phenyl]-2,3-dihydro-1H-imidazole-1-carboxamide]: the IC50 was under 1 nM.
In the case of `Cc1c(-c2ccnn2-c2ccc(C#N)cc2)n(C(=O)NCCN(C)C)c(=O)n1-c1cccc(C(F)(F)F)c1` [Example 12, 5-[1-(4-Cyanophenyl)-1H-pyrazol-5-yl]-N-[2-(dimethylamino)ethyl]-4-methyl-2-oxo-3-[3-(trifluoromethyl)phenyl]-2,3-dihydro-1H-imidazole-1-carboxamide], the IC50 was in the range of 1 to 10 nM.
As for `Cc1c(-c2ccnn2-c2ccc(C#N)cc2)n(C(=O)NCCS(C)(=O)=O)c(=O)n1-c1cccc(C(F)(F)F)c1` [Example 13, 5-[1-(4-Cyanophenyl)-1H-pyrazol-5-yl]-4-methyl-N-[2-(methylsulfonyl)ethyl]-2-oxo-3-[3-(trifluoromethyl)phenyl]-2,3-dihydro-1H-imidazole-1-carboxamide], the IC50 was under 1 nM.
As for `Cc1c(-c2ccnn2-c2ccc(C#N)cc2)n(C(=O)NC2CCOC2)c(=O)n1-c1cccc(C(F)(F)F)c1` (stereo not shown) [Example 14, 5-[1-(4-Cyanophenyl)-1H-pyrazol-5-yl]-4-methyl-2-oxo-N-(tetrahydrofuran-3-yl)-3-[3-(trifluoromethyl)phenyl]-2,3-dihydro-1H-imidazole-1-carboxamide], the IC50 is under 1 nM.
On to `Cc1c(-c2ccnn2-c2ccc(C#N)cc2)n(C(=O)N[C@H]2CCOC2)c(=O)n1-c1cccc(C(F)(F)F)c1` [Example 15, 5-[1-(4-Cyanophenyl)-1H-pyrazol-5-yl]-4-methyl-2-oxo-N-[(3S)-tetrahydrfuran-3-yl]-3-[3-(trifluoromethyl)phenyl]-2,3-dihydro-1H-imidazole-1-carboxamide], for which the concentration for half-maximal inhibition (IC50) was under 1 nM.
Regarding `Cc1c(-c2ccnn2-c2ccc(C#N)cc2)n(C(=O)N[C@@H]2CCOC2)c(=O)n1-c1cccc(C(F)(F)F)c1` [Example 16, 5-[1-(4-Cyanophenyl)-1H-pyrazol-5-yl]-4-methyl-2-oxo-N-[(3R)-tetrahydrofuran-3-yl]-3-[3-(trifluoromethyl)phenyl]-2,3-dihydro-1H-imidazole-1-carboxamide], the 50% inhibitory concentration (IC50) is under 1 nM.
As for `Cc1c(-c2ccnn2-c2ccc(C#N)cc2)n(C(=O)NCc2ccn(C)n2)c(=O)n1-c1cccc(C(F)(F)F)c1` [Example 17, 5-[1-(4-Cyanophenyl)-1H-pyrazol-5-yl]-4-methyl-N-[(1-methyl-1H-pyrazol-3-yl)methyl]-2-oxo-3-[3-(trifluoromethyl)phenyl]-2,3-dihydro-1H-imidazole-1-carboxamide], the IC50 is under 1 nM.
As for `COC(=O)n1c(-c2ccnn2-c2ccc(C#N)cc2)c(C)n(-c2cccc(C(F)(F)F)c2)c1=O` [Example 18, Methyl-5-[1-(4-cyanophenyl)-1H-pyrazol-5-yl]-4-methyl-2-oxo-3-[3-(trifluoromethyl)phenyl]-2,3-dihydro-1H-imidazole-1-carboxylate], the figure is under 1 nM.
